Consider two molecules from US12351561B2, “Crystalline (2S,4R)-5-(5'-chloro-2'-fluoro-[1,1'-biphenyl]-4-yl)-2-(ethoxymethyl)-4-(3-hydroxyisoxazole-5-carboxamido)-2-methylpentanoic acid and uses thereof” (THERAVANCE BIOPHARMA R&D IP, LLC, priority 2016, dated 2025).

Data set [1] is described as follows: Dynamic moisture sorption (DMS) assessment. Type of data set: physicochemical. On the procedure:
In one embodiment, crystalline form I′ is characterized by the DMS isotherm in FIG. 4. […] The total moisture gain observed is less than 0.02% by weight when exposed to 5-90% relative humidity. No significant hysteresis is found between two consecutive sorption-desorption cycles. […] The crystalline form I′ remains non-hygroscopic and therefore may be characterized as anhydrous, non-hygroscopic or both.
DMS measurements were performed using a VTI atmospheric microbalance, SGA-100 system (VTI Corp., Hialeah, FL 33016). A weighed sample was used and the humidity was lowest possible value (close to 0% relative humidity) at the start of the analysis. The DMS analysis consisted of a scan rate of 5% relative humidity/step over the full humidity range of 5-90%. The DMS run was performed isothermally at 25° C.

Data set [2] in a line: Stability study of crystalline form (25° C./60% RH and accelerated 40° C./75% RH). Type of data set: physicochemical. The method, then:
One challenge in pharmaceutical drug development relates to discovering a stable, crystalline form of a drug having a reasonably high melting point. One challenge of the present invention was that small crystals of the free acid of Compound I were difficult to obtain with the favorable physical properties mentioned above. Once achieved, the small crystals melted around 216° C. and an accelerated stability study of Compound I′ was conducted at the temperatures and % relative humidity (RH) reported below.

For a further data set, the target named is human neprilysin (NEP) (Homo sapiens, UniProt P08473). Put plainly: in vitro human neprilysin inhibitor activity (pKi). Type of data set: biochemical. The text has this:
One measure of the ability of a compound to inhibit NEP activity is the inhibition constant (pKi). The pKi value is the negative logarithm to base 10 of the dissociation constant (Ki), which is typically reported in molar units. The compound of the invention has a pKi at NEP≥9.0.
The in vitro-to-in vivo extrapolation of drug behavior in a subject continues to improve (see, e.g., Chiba et al., AAPS J., 2009 June; 11 (2): 262-276). In the present invention, in vitro human neprilysin inhibitor activity was assessed in order to determine neprilysin inhibitory activity of Compound I and crystalline form I′. A threshold of pKi>9.0 was met. However, additional in vivo experiments were further performed in order to more accurately predict the behavior of Compound I and crystalline form I′ in a subject.

The next data set has as its target T1, NEP (Homo sapiens, UniProt P08473).
T1 construct: from tissue; host or cells: healthy human volunteers (in vivo)
Put plainly: Assay 4.1: NEP activity in human (cGMP), multiple-ascending dose study. Format: in vivo. The conditions noted are these: once-daily dose, trough (0 h) up to 24 h. The method, then:
The Phase 1 study was a double-blind, randomized placebo-controlled multiple ascending dose study in healthy male and female volunteers randomized in a 4:1 ratio. The study enrolled 50 healthy adult (19-55 years old) and elderly (65-80 years old) volunteers over multiple weeks for the ascending-dose portion, which included cohorts (n=10/cohort of 8 active and 2 placebo) administered (1) ascending doses of 50 mg, 100 mg, and 200 mg, (2) a dose of 10 mg studied in parallel with 200 mg for PK/PK, and (3) a dose of 100 mg for one elderly cohort. […] Additionally, renal elimination of Compound I was neglible after multiple dosing, e.g., <1% was observed on Day 1 and Day 14 for all subjects.
Part of the MAD clinical studies was to determine the mechanism/duration of action of Compound I after dosing in humans.

Data set [3] can be described thus: Assay 3.2: PK profile, oral bioavailability and renal excretion in human (SAD, 14C i.v. microtracer). Format: in vivo. The conditions noted are these: human, SAD clinical trial, confirmed by intravenous microtracer. The method, then:
A Phase 1 single-ascending dose (SAD) clinical trial of Compound I′ (Form I), which converts to or dissolves to provide its soluble form Compound I in the body, was conducted in order to assess neprilysin inhibition for the treatment of a range of cardiovascular and renal diseases, including, e.g., chronic kidney disease, diabetic nephropathy, acute and chronic heart failure, heart failure with reduced ejection fraction, heart failure with preserved ejection fraction, post-myocardial infarction asymptomatic left ventricular dysfunction (post-MI asymptomatic LVD), subacute heart failure and resistant and isolated systolic hypertension. Safety and tolerability, pharmacokinetic (support for QD/BID dosing and non-renal excretion), pharmacodynamic (test for target engagement biomarkers cGMP and ANP), food effect, and absolute oral bioavailability and renal elimination using a ^14C intravenous microtracer, inter alia, were tested.
The Phase 1 study was a double-blind, randomized placebo-controlled single ascending dose study in healthy male and female volunteers randomized in a 4:1 ratio. The study enrolled 56 healthy volunteers over multiple weeks for the ascending-dose portion, which included cohorts (n=10/cohort of 8 active and 2 placebo) administered single ascending doses of 50 mg, 100 mg, 200 mg, 400 mg and 600 mg. A sixth cohort (n=6) was administered i.v. microtracer and oral doses of 10 μg and 100 mg, respectively.

The conditions of data set [4]: healthy subjects; cited from earlier work.

Structures are written as SMILES.

Sequence of human neprilysin (NEP) (P08473 whole entry): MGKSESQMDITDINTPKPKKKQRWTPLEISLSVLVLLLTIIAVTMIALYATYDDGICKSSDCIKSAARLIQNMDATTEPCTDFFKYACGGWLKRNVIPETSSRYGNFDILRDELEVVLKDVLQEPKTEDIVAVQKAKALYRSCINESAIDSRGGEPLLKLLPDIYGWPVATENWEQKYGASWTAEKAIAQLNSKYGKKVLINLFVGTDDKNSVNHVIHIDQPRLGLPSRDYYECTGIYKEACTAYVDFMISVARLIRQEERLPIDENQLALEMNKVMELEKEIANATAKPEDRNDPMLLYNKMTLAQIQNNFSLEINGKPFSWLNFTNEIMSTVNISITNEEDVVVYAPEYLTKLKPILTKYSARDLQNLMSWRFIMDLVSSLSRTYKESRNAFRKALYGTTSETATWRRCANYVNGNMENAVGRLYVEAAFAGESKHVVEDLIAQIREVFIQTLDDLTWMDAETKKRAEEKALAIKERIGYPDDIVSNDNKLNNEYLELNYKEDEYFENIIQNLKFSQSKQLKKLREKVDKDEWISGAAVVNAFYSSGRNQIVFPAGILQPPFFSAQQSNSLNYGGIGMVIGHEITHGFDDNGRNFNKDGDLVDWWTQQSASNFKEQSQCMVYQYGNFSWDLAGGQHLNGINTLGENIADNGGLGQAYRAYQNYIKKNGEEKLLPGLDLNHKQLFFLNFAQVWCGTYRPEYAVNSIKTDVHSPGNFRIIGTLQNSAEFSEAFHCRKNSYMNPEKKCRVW
T1 sequence (P08473 whole entry): as above

With `CCOC[C@](C)(C[C@@H](Cc1ccc(-c2cc(Cl)ccc2F)cc1)NC(=O)c1cc(O)no1)C(=O)O` [Compound I′, (2S,4R)-5-(5′-chloro-2′-fluoro-[1,1′-biphenyl]-4-yl)-2-(ethoxymethyl)-4-(3-hydroxyisoxazole-5-carboxamido)-2-methylpentanoic acid], the “hygroscopicity (DMS isotherm)” value in data set [1] (5-90% relative humidity, two sorption-desorption cycles) was “non-hygroscopic solid”. Moreover, the total moisture gain entry in data set [1] (exposed to 5-90% relative humidity, 25° C.) is “less than 0.02 % by weight”. The “time for which the crystalline form remains stable” value in data set [2] (25° C., 60% RH) is on record as “at least 18 months”; in data set [2] (measured by accelerated conditions of 40° C., 75% RH (6 months taken as equivalent to 2 years at 25° C., 60% RH)), “at least 2 years”. In addition, the Assay is given as 98.6 % (w/w) in data set [2] (25° C., 60% RH, 0 months); 98.5 % (w/w) in data set [2] (25° C., 60% RH, 3 months); 99.2 % (w/w) in data set [2] (25° C., 60% RH, 6 months); 99.0 % (w/w) in data set [2] (25° C., 60% RH, 9 months); 99.2 % (w/w) in data set [2] (25° C., 60% RH, 12 months); 99.1 % (w/w) in data set [2] (25° C., 60% RH, 18 months). For the same molecule, the Assay was 98.6 % (w/w) in data set [2] (40° C., 75% RH (accelerated), 0 months); 98.5 % (w/w) in data set [2] (40° C., 75% RH (accelerated), 1 month); 98.6 % (w/w) in data set [2] (40° C., 75% RH (accelerated), 3 months); 99.0 % (w/w) in data set [2] (40° C., 75% RH (accelerated), 6 months). The “Water Content” value is recorded as “<LOQ” in data set [2] (25° C., 60% RH, 0 months, LOQ = 0.2%); “<LOQ” in data set [2] (25° C., 60% RH, 6 months, LOQ = 0.19%); “<LOQ” in data set [2] (25° C., 60% RH, 12 months, LOQ = 0.19%); “<LOQ” in data set [2] (40° C., 75% RH (accelerated), 0 months, LOQ = 0.2%); “<LOQ” in data set [2] (40° C., 75% RH (accelerated), 3 months, LOQ = 0.22%); “<LOQ” in data set [2] (40° C., 75% RH (accelerated), 6 months, LOQ = 0.19%). In data set [2] (at 12-months), the water detected result is listed as “no quantifiable amount of water is detected”. Besides, at human neprilysin (NEP), the Ki (commonly the dissociation constant of the complex between target and ligand, obtained from inhibition or displacement) is not above 1 nM. The “target engagement (plasma cGMP) on Day 14” value at NEP is listed as “target engagement of all doses at trough (0 h) as well as all doses measured up to 24 h”. Moreover, the “renal elimination (of total administered dose)” value in data set [3] is reported as “less than 1%”.

`CCOC(=O)[C@H](C)C[C@@H](Cc1ccc(-c2ccccc2)cc1)NC(=O)CCC(=O)O` [sacubitril]: the renal elimination in data set [4] was 60%.
